According to patent US20120220564A1, “SELECTIVE CALCIUM CHANNEL MODULATORS” (Zalicus Pharmaceuticals Ltd., priority 2009, published 2012):

Assays:
[1] = test system: minimal muscular or neurological impairment (rotarod); assay: Mouse rotarod assay; assay type: in vivo, mice
Description: To assess a compound's undesirable side effects (toxicity), animals can be monitored for overt signs of impaired neurological or muscular function. In mice, the rotarod procedure (Dunham and Miya, J. Am. Pharmacol. Assoc. 46:208-209 (1957)) is used to disclose minimal muscular or neurological impairment (MMI). When a mouse is placed on a rod that rotates at a speed of 6 rpm, the animal can maintain its equilibrium for long periods of time. The animal is considered toxic if it falls off this rotating rod three times during a 1-min period.

[2] = biological target: T1, α1G (CaV 3.1) (Homo sapiens, UniProt O43497); assay: T-type calcium channel block, whole cell patch clamp; assay type: cell-based; details: HEK cells, mainly non-inactivated protocol; values above 10,000 nM represented as 10000
T1 construct: expressed in transfected cells; host or cells: HEK 293
T1 sequence (O43497 whole entry): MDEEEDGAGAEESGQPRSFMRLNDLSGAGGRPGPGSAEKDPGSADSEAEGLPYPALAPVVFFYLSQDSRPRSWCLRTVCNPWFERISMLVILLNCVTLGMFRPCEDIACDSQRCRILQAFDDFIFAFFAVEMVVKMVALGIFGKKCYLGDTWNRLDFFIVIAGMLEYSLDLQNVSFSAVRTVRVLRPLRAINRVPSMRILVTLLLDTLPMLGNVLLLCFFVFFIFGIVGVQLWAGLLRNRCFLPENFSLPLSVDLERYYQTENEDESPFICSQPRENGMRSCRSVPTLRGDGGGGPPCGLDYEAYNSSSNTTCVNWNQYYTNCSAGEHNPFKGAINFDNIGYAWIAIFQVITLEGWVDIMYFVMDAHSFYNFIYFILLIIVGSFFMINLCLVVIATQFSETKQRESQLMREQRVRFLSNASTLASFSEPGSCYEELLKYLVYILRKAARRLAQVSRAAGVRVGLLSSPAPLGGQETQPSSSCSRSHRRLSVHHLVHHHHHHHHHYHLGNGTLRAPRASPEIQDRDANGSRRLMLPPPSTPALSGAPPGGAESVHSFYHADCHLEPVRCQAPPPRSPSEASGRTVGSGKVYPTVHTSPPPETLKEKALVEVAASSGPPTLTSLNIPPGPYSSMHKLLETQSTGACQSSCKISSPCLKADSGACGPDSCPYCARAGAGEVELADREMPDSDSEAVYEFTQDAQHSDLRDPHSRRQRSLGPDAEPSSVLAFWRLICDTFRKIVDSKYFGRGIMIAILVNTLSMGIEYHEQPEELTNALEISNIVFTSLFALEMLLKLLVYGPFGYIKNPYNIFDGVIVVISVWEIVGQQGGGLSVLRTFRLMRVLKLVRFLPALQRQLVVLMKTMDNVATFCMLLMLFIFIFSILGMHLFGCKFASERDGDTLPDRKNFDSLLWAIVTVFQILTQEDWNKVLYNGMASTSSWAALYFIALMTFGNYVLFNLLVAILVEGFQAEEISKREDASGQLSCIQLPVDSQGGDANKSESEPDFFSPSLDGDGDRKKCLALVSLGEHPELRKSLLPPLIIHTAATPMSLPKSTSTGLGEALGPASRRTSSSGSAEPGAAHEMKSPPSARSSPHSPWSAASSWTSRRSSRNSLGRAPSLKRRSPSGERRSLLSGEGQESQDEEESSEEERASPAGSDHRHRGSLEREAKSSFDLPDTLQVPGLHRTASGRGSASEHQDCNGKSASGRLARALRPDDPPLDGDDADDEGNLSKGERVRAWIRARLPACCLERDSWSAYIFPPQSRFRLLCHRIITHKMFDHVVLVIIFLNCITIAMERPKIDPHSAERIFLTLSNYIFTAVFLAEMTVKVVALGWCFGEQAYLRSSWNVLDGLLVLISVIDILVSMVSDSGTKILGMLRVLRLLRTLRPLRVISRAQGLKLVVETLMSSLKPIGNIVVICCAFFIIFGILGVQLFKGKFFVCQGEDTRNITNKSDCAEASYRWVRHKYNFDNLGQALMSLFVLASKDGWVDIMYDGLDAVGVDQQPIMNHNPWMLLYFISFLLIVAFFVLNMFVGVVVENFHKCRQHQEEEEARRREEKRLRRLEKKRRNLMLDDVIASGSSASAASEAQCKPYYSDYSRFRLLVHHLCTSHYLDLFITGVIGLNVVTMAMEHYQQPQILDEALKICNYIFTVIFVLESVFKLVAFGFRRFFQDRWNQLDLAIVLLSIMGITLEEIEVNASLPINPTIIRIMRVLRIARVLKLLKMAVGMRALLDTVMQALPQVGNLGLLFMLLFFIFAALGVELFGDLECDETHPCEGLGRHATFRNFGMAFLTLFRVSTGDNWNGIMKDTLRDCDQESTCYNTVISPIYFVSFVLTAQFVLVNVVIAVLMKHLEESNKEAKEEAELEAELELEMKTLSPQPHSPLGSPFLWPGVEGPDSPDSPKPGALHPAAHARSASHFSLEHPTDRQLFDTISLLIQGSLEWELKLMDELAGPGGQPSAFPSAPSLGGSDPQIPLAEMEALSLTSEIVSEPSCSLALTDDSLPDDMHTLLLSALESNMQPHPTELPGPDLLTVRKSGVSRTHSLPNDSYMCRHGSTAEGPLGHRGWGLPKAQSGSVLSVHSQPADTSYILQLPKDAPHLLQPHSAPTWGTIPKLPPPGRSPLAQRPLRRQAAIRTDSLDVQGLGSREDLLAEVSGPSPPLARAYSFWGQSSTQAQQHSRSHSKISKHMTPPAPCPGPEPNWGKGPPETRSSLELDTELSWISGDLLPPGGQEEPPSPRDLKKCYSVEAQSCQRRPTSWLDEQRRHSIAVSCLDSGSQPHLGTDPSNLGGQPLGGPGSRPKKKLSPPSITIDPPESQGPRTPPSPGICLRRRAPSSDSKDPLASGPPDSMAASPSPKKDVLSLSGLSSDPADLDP
Description: (§1) T-type calcium channel blocking activity was assayed in human embryonic kidney cells, HEK 293 (Invitrogen), stably transfected with the T-type calcium channel subunits. Briefly, cells were cultured in Dulbecco's modified eagle medium (DMEM) supplemented with 10% fetal bovine serum, 200 U/ml penicillin, and 0.2 mg/mL streptomycin at 37° C. with 5% CO2. At 85% confluency, cells were split with 0.25% trypsin/1 mM EDTA and plated at 10% confluency on glass coverslips. At 12 hours, the medium was replaced, and the cells stably transfected using a standard calcium phosphate protocol and the appropriate calcium channel cDNA's. Fresh DMEM was supplied, and the cells transferred to 28° C./5% CO2. Cells were incubated for 1 to 2 days prior to whole cell recording.
(§2) Standard patch-clamp techniques were employed to identify blockers of T-type currents. Briefly, previously described HEK cell lines stably expressing human α1G, α1H and α1I T-type channels were used for all the recordings (passage #: 4-20, 37° C., 5% CO2). Whole cell patch clamp experiments were performed using an Axopatch 200B amplifier (Axon Instruments, Burlingame, Calif.) linked to a personal computer equipped with pCLAMP software. Data were analyzed using Clampfit (Axon Instruments) and SigmaPlot 4.0 (Jandel Scientific). To obtain T-type currents, plastic dishes containing semi-confluent cells were positioned on the stage of a ZEISS AXIOVERT S100 microscope after replacing the culture medium with external solution (Table 2). Whole-cell patches were obtained using pipettes (borosilicate glass with filament, O.D.: 1.5 mm, I.D.: 0.86 mm, 10 cm length), fabricated on a SUTTER P-97 puller with resistance values of ˜5 MΩ (Table 3).
(§3) T-type currents were reliably obtained by using two voltage protocols:
(§4) In the non-inactivating protocol, the holding potential is set at −110 mV and with a pre-pulse at −100 mV for 1 second prior to the test pulse at −40 mV for 50 ms. In the inactivation protocol, the pre-pulse is at approximately −85 mV for 1 second, which inactivates about 15% of the T-type channels (Scheme 1).
(§5) Test compounds were dissolved in external solution, 0.1-0.01% DMSO. After ˜10 minutes rest, they were applied by gravity close to the cell using a WPI microfil tubing. The “non-inactivated” pre-pulse was used to examine the resting block of a compound. The “inactivated” protocol was employed to study voltage-dependent block. However, the initial data shown below were mainly obtained using the non-inactivated protocol only. IC50 values are shown for various compounds of the invention in Table 4. […] In Table 4, empty cells indicate that inhibition by the compound was not detected.

[3] = biological target: T2, α1H (CaV 3.2) (Homo sapiens, UniProt O95180); assay: as above; assay type: cell-based; details: HEK cells, mainly non-inactivated protocol; values above 10,000 nM represented as 10000
T2 construct: expressed in transfected cells; host or cells: HEK 293
T2 sequence (O95180 whole entry): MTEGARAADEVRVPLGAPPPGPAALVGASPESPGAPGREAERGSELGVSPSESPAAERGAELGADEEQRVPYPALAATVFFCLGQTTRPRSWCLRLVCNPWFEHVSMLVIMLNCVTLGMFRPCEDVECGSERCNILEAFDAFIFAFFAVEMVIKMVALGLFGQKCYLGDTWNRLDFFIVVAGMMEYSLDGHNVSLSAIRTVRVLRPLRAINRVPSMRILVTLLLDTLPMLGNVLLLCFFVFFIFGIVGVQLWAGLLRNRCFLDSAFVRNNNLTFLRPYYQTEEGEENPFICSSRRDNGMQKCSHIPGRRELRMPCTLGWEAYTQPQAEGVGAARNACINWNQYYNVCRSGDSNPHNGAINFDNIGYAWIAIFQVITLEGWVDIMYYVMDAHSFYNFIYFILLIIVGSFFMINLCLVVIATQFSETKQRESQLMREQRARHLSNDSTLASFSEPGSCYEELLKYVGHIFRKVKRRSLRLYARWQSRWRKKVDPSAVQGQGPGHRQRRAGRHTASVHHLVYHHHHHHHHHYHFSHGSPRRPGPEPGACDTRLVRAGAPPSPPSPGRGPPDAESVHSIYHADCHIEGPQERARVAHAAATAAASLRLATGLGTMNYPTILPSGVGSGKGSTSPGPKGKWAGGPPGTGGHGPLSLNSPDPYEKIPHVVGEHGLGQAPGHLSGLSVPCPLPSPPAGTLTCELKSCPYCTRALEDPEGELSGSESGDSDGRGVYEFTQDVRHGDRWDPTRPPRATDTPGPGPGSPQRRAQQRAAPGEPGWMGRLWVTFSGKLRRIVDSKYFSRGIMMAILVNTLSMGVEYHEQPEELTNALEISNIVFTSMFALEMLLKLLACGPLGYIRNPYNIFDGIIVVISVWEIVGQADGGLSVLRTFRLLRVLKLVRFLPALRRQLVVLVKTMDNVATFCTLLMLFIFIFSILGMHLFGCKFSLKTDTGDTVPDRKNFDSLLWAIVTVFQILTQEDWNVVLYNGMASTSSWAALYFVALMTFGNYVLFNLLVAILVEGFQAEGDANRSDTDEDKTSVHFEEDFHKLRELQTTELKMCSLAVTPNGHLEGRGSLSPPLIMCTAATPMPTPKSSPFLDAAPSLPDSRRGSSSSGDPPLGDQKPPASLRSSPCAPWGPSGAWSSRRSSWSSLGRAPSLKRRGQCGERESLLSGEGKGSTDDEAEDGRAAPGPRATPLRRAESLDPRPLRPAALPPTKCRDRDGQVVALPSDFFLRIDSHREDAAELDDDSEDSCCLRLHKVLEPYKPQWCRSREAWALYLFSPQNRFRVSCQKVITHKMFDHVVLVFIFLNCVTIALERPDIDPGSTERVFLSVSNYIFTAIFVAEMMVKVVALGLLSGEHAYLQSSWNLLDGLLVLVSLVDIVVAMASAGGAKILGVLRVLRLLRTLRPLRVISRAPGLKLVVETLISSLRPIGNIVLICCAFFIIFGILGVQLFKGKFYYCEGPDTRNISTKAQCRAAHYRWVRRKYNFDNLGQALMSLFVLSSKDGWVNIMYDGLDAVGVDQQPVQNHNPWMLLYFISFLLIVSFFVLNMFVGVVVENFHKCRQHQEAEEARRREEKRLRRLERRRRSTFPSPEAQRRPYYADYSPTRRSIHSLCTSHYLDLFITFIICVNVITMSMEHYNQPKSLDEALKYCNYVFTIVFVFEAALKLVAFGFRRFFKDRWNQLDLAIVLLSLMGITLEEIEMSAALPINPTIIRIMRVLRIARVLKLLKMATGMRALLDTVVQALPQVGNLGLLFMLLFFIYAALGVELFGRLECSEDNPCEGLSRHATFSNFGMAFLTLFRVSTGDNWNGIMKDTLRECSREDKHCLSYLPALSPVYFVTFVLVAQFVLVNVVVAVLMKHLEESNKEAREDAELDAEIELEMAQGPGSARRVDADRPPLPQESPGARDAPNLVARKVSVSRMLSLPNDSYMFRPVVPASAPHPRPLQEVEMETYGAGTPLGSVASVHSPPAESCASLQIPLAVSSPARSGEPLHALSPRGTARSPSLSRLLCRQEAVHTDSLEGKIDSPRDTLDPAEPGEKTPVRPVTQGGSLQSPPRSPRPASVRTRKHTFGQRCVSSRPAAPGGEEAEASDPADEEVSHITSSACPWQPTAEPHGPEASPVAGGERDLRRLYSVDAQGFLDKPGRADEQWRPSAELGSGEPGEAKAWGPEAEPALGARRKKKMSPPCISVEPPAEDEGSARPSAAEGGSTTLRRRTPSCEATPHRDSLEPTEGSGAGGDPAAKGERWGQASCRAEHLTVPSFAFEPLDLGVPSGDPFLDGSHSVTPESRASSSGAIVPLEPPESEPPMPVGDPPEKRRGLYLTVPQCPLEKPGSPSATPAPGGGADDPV
Description: as §1, §2, §3, §4, §5

[4] = test system: 6 Hz psychomotor seizure; assay: 6 Hz psychomotor seizure model of partial epilepsy; assay type: in vivo, mice; design: concentration or dose not given beside the values
From the text: Compounds can also be evaluated for the protection against seizures induced by a 6 Hz, 0.2 ms rectangular pulse width of 3 s duration, at a stimulus intensity of 32 mA (CC97) applied to the cornea of male CF1 mice (20-30 g) according to procedures described by Barton et al, “Pharmacological Characterization of the 6 Hz Psychomotor Seizure Model of Partial Epilepsy,” Epilepsy Res. 47(3):217-27 (2001). Seizures are characterised by the expression of one or more of the following behaviours: stun, forelimb clonus, twitching of the vibrissae and Straub-tail immediately following electrical stimulation.

[5] = test system: Rat SNL tactile allodynia; assay: L5/L6 spinal nerve ligation (SNL) Chung pain model, tactile allodynia (von Frey); assay type: in vivo; details: for % Antiallodynia (Mean ± SD): 100 mg/kg PO, n = 7-8
From the text: The Spinal Nerve Ligation is an animal model representing peripheral nerve injury generating a neuropathic pain syndrome. In this model experimental animals develop the clinical symptoms of tactile allodynia and hyperalgesia. L5/L6 Spinal nerve ligation (SNL) injury was induced using the procedure of Kim and Chung (Kim et al., Pain 50:355-363 (1992)) in male Sprague-Dawley rats (Harlan; Indianapolis, Ind.) weighing 200 to 250 grams.
Anaesthesia was induced with 2% isofluorane in O2 at 2 L/min and maintained with 0.5% isofluorane in O2. Rats were then shaved and aseptically prepared for surgeries. A 2 cm paraspinal incision was made at the level of L4-S2. L4/L5 was exposed by removing the transverse process above the nerves with a small rongeur. The L5 spinal nerve is the larger of the two visible nerves below the transverse process and lies closest to the spine. The L6 spinal nerve is located beneath the corner of the slope bone. A home-made glass Chung rod was used to hook L5 or L6 and a pre-made slip knot of 4.0 silk suture was placed on the tip of the rod just above the nerve and pulled underneath to allow for the tight ligation. The L5 and L6 spinal nerves were tightly ligated distal to the dorsal root ganglion. The incision was closed, and the animals were allowed to recover for 5 days.
Sham control rats underwent the same operation and handling as the experimental animals, but without SNL.
Prior to initiating drug delivery, baseline behavioural testing data is obtained. At selected times after infusion of the Test or Control Article behavioural data can then be collected again.
The assessment of tactile allodynia consisted of measuring the withdrawal threshold of the paw ipsilateral to the site of nerve injury in response to probing with a series of calibrated von Frey filaments (innocuous stimuli). Animals were acclimated to the suspended wire-mesh cages for 30 min before testing. Each von Frey filament was applied perpendicularly to the plantar surface of the ligated paw of rats for 5 sec. A positive response was indicated by a sharp withdrawal of the paw. For rats, the first testing filament is 4.31. Measurements were taken before and after administration of test articles. […] The protocol was repeated until three changes in behaviour were determined (“up and down” method) (Chaplan et al., J. Neurosci. Methods 53:55-63 (1994)). The 50% paw withdrawal threshold was determined as (10^[Xf+kδ])/10,000, where Xf=the value of the last von Frey filament employed, k=Dixon value for the positive/negative pattern, and δ=the logarithmic difference between stimuli. The cut-off values for rats were no less than 0.2 g and no higher than 15 g (5.18 filament); for mice no less than 0.03 g and no higher than 2.34 g (4.56 filament). A significant drop of the paw withdrawal threshold compared to the pre-treatment baseline is considered tactile allodynia.

[6] = test system: Lamina I/II spinal cord neurons; assay: Lamina assay, current-clamp recordings in spinal cord slices; assay type: cell-based, rat; details: Lamina I and II neurons
From the text: Male Wistar rats (P6 to P9 for voltage-clamp and P15 to P18 for current-clamp recordings) were anaesthetized through intraperitoneal injection of Inactin (Sigma). The spinal cord was then rapidly dissected out and placed in an ice-cold solution protective sucrose solution containing (in mM): 50 sucrose, 92 NaCl, 15 D-Glucose, 26 NaHCO3, 5 KCl, 1.25 NaH2PO4, 0.5 CaCl2, 7 MgSO4, 1 kynurenic acid, and bubbled with 5% CO2/95% O2. The meninges, dura, and dorsal and ventral roots were then removed from the lumbar region of the spinal cord under a dissecting microscope. The “cleaned” lumbar region of the spinal cord was glued to the vibratome stage and immediately immersed in ice cold, bubbled, sucrose solution. For current-clamp recordings, 300 to 350 μm parasagittal slices were cut to preserve the dendritic arbour of lamina I neurons, while 350 to 400 μm transverse slices were prepared for voltage-clamped […] channel recordings. Slices were allowed to recover for 1 hour at 35° C. in Ringer solution containing (in mM): 125 NaCl, 20 D-Glucose, 26 NaHCO3, 3 KCl, 1.25 NaH2PO4, 2 CaCl2, 1 MgCl2, 1 kynurenic acid, 0.1 picrotoxin, bubbled with 5% CO2/95% O2. The slice recovery chamber was then returned to room temperature (20 to 22° C.) and all recordings were performed at this temperature.
Neurons were visualized using IR-DIC optics (Zeiss Axioskop 2 FS plus, Gottingen, Germany), and neurons from lamina I and the outer layer of lamina II were selected based on their location relative to the substantia gelatinosa layer. Neurons were patch-clamped using borosilicate glass patch pipettes with resistances of […] Current-clamp recordings of lamina I/II neurons in the intact slice, the external recording solution was the above Ringer solution, while the internal patch pipette solution contained (in mM): 140 KGluconate, 4 NaCl, 10 HEPES, 1 EGTA, 0.5 MgCl2, 4 MgATP, 0.5 Na2GTP, adjusted to pH 7.2 with 5 M KOH and to 290 mOsm with D-Mannitol (if necessary). […]

SMILES	Rotarod Assay (% impaired) ([1]; 0.25 hr) [%]	Rotarod Assay (% impaired) ([1]; 0.5 hr) [%]	Rotarod Assay (% impaired) ([1]; 1 hr) [%]	Rotarod Assay (% impaired) ([1]; 2 hr) [%]	Rotarod Assay (% impaired) ([1]; 4 hr) [%]	IC50 [2] [nM]	IC50 [3] [nM]	Epilepsy 6 Hz (% Protected) ([4]; 0.25 hr) [%]	Epilepsy 6 Hz (% Protected) ([4]; 0.5 hr) [%]	Epilepsy 6 Hz (% Protected) ([4]; 1 hr) [%]	Epilepsy 6 Hz (% Protected) ([4]; 2 hr) [%]	Rat SNL tactile allodynia (% antiallodynia) ([5]; 1 hr) [%]	Rat SNL tactile allodynia (% antiallodynia) ([5]; 2 hr) [%]	Rat SNL tactile allodynia (% antiallodynia) ([5]; 4 hr) [%]	other results
O=C(CC1CCN(C(=O)C2CNCCO2)CC1)Nc1cc(C(F)(F)F)cc(C(F)(F)F)c1 (centres unmarked) [Compound 4, N-(3,5-bis(trifluoromethyl)phenyl)-2-(1-(morpholine-2-carbonyl)piperidin-4-yl)acetamide]	25	0	75	75	75	> 10000	2180	–	–	–	–	–	–	–	–
NC1(CC(=O)N2CCC(CC(=O)Nc3cc(C(F)(F)F)cc(C(F)(F)F)c3)CC2)CCCCC1 [Compound 8, 2-(1-(2-(1-aminocyclohexyl)acetyl)piperidin-4-yl)-N-(3,5-bis(trifluoromethyl)phenyl)acetamide]	0	50	75	100	100	> 10000	110	75	75	67	100	–	–	–	–
NC1(CC(=O)N2CCC(O)(CC(=O)Nc3cc(C(F)(F)F)cc(C(F)(F)F)c3)CC2)CCCCC1 [Compound 54, 2-(1-(2-(1-aminocyclohexyl)acetyl)-4-hydroxypiperidin-4-yl)-N-(3,5-bis(trifluoromethyl)phenyl)acetamide]	–	–	–	–	–	–	80	25	75	75	75	41	39	45	Epilepsy 6 Hz (% Protected) ([4]; 4 hr): 100%
O=C(CC1CCN(C(=O)[C@H]2CCCCN2)CC1)Nc1cc(C(F)(F)F)cc(C(F)(F)F)c1 [Compound 74]	–	–	–	–	–	–	–	–	–	–	–	–	–	–	% Spike Change Mean [6]: −53%
NC1(CC(=O)N2CCC(NC(=O)Nc3cc(C(F)(F)F)cc(C(F)(F)F)c3)CC2)CCCCC1 [Compound 75]	–	–	–	–	–	–	–	–	–	–	–	5	3	3	–
NCC1(CC(=O)O)CCCCC1 [Gabapentin, gabapentin, reference compound]	–	–	–	–	–	–	–	–	–	–	–	–	–	–	% Antiallodynia (Mean ± SD) ([5]; 1 h): 73 ± 35 %; % Antiallodynia (Mean ± SD) ([5]; 2 h): 90 ± 18 %; % Antiallodynia (Mean ± SD) ([5]; 4 h): 15 ± 8%; anti-allodynia performance compared with first study ([5]; second repetition of the study): performed similarly
